# Data reported in the supplement of paper PMC10307832.
# Key:
# Test in all cases: relative viability (nuclei count vs DMSO), 5 days (fraction); higher = more cells survive
# [1] = system: Calu-6
# Outline: (§1)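 Five library-drug doses in √10 steps were combined with a fixed anchor-drug dose, or a single drug was given alone, by pin tool to lung cancer cell lines in 1536-well plates the day after seeding. Nuclei were stained and counted after 5 days. Relative viability is the nuclei count in treated wells over that in vehicle wells, taken as the median of duplicate plates.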
# [2] = system: UMC-11
# Outline: as §1
# [3] = system: NCI-H1650
# Outline: as §1
# [4] = system: NCI-H1299
# Outline: as §1
# [5] = system: LK-2
# Outline: as §1
# [6] = system: NCI-H1703
# Outline: as §1
# [7] = system: IA-LM
# Outline: as §1
# [8] = system: NCI-H2009
# Outline: as §1
# [9] = system: A549
# Outline: as §1
# [10] = system: CAL-12T
# Outline: as §1
# [11] = system: A-427
# Outline: as §1
# [12] = system: EBC-1
# Outline: as §1
# [13] = system: NCI-H1734
# Outline: as §1
compound,measurement,setting,value
COc1nc(C)cnc1NS(=O)(=O)c1cccnc1-c1ccc(-c2nnco2)cc1 [Zibotentan] + CS(=O)(=O)N1CCN(Cc2cc3nc(-c4cccc5[nH]ncc45)nc(N4CCOCC4)c3s2)CC1 [Pictilisib] (partner 1 µM),relative viability,[1]; first compound 0.08 µM,0.868
same,relative viability,[1]; first compound 0.253 µM,0.83
same,relative viability,[1]; first compound 0.8 µM,0.881
same,relative viability,[1]; first compound 2.53 µM,1.03
same,relative viability,[2]; first compound 0.08 µM,0.746
same,relative viability,[2]; first compound 0.253 µM,0.809
same,relative viability,[2]; first compound 0.8 µM,0.837
same,relative viability,[2]; first compound 2.53 µM,0.777
same,relative viability,[3]; first compound 0.08 µM,0.675
same,relative viability,[3]; first compound 0.8 µM,0.638
same,relative viability,[3]; first compound 2.53 µM,0.658
same,relative viability,[4]; first compound 0.08 µM,0.911
same,relative viability,[4]; first compound 0.253 µM,0.777
same,relative viability,[4]; first compound 0.8 µM,0.773
same,relative viability,[4]; first compound 2.53 µM,0.661
same,relative viability,[5]; first compound 0.08 µM,0.542
same,relative viability,[5]; first compound 0.253 µM,0.471
same,relative viability,[5]; first compound 0.8 µM,0.55
same,relative viability,[5]; first compound 2.53 µM,0.603
same,relative viability,[6]; first compound 0.08 µM,0.232
same,relative viability,[6]; first compound 0.253 µM,0.272
same,relative viability,[6]; first compound 0.8 µM,0.26
same,relative viability,[6]; first compound 2.53 µM,0.252
same,relative viability,[7]; first compound 0.253 µM,0.312
same,relative viability,[7]; first compound 0.8 µM,0.328
same,relative viability,[7]; first compound 2.53 µM,0.301
same,relative viability,[8]; first compound 0.08 µM,0.889
same,relative viability,[8]; first compound 0.253 µM,0.774
same,relative viability,[8]; first compound 0.8 µM,0.822
same,relative viability,[8]; first compound 2.53 µM,0.886
same,relative viability,[9]; first compound 0.08 µM,0.478
same,relative viability,[9]; first compound 0.253 µM,0.388
same,relative viability,[9]; first compound 0.8 µM,0.57
same,relative viability,[9]; first compound 2.53 µM,0.519
same,relative viability,[10]; first compound 0.08 µM,0.395
same,relative viability,[10]; first compound 0.8 µM,0.453
same,relative viability,[10]; first compound 2.53 µM,0.513
same,relative viability,[11]; first compound 0.08 µM,0.909
same,relative viability,[11]; first compound 0.253 µM,0.733
same,relative viability,[11]; first compound 0.8 µM,0.68
same,relative viability,[11]; first compound 2.53 µM,0.751
same,relative viability,[12]; first compound 0.08 µM,0.369
same,relative viability,[12]; first compound 0.253 µM,0.435
same,relative viability,[12]; first compound 0.8 µM,0.486
same,relative viability,[12]; first compound 2.53 µM,0.389
same,relative viability,[13]; first compound 0.08 µM,0.516
same,relative viability,[13]; first compound 0.253 µM,0.442
same,relative viability,[13]; first compound 0.8 µM,0.461
same,relative viability,[13]; first compound 2.53 µM,0.43
O=c1cc(-c2cccc3c2Sc2ccccc2S3)oc(N2CCOCC2)c1 + CC1(C)CCC(c2ccc(Cl)cc2)=C(CN2CCN(c3ccc(C(=O)NS(=O)(=O)c4ccc(N[C@H](CCN5CCOCC5)CSc5ccccc5)c(S(=O)(=O)C(F)(F)F)c4)cc3)CC2)C1 [Navitoclax] (partner 0.5 µM),relative viability,[1]; first compound 0.08 µM,0.818
same,relative viability,[1]; first compound 0.253 µM,0.765
same,relative viability,[1]; first compound 0.8 µM,0.968
same,relative viability,[1]; first compound 2.53 µM,0.725
same,relative viability,[1]; first compound 8 µM,0.858
same,relative viability,[2]; first compound 0.08 µM,0.326
same,relative viability,[2]; first compound 0.253 µM,0.319
same,relative viability,[2]; first compound 0.8 µM,0.32
same,relative viability,[2]; first compound 2.53 µM,0.304
same,relative viability,[2]; first compound 8 µM,0.353
same,relative viability,[3]; first compound 0.08 µM,1.05
same,relative viability,[3]; first compound 0.253 µM,1.21
same,relative viability,[3]; first compound 0.8 µM,1.12
same,relative viability,[3]; first compound 2.53 µM,1.17
same,relative viability,[3]; first compound 8 µM,1.38
same,relative viability,[4]; first compound 0.08 µM,1.08
same,relative viability,[4]; first compound 0.253 µM,1.08
same,relative viability,[4]; first compound 0.8 µM,1.04
same,relative viability,[4]; first compound 2.53 µM,1.04
same,relative viability,[4]; first compound 8 µM,1.04
same,relative viability,[5]; first compound 0.08 µM,0.861
same,relative viability,[5]; first compound 0.253 µM,1.03
same,relative viability,[5]; first compound 0.8 µM,0.992
same,relative viability,[5]; first compound 2.53 µM,0.808
same,relative viability,[5]; first compound 8 µM,1.43
same,relative viability,[6]; first compound 0.253 µM,1.22
same,relative viability,[6]; first compound 0.8 µM,1.35
same,relative viability,[6]; first compound 2.53 µM,1.05
same,relative viability,[6]; first compound 8 µM,1.05
same,relative viability,[7]; first compound 0.08 µM,0.847
same,relative viability,[7]; first compound 0.253 µM,1.06
same,relative viability,[7]; first compound 0.8 µM,0.815
same,relative viability,[7]; first compound 2.53 µM,0.856
same,relative viability,[7]; first compound 8 µM,0.963
same,relative viability,[8]; first compound 0.08 µM,1.22
same,relative viability,[8]; first compound 0.253 µM,1.2
same,relative viability,[8]; first compound 0.8 µM,1.21
same,relative viability,[8]; first compound 2.53 µM,1.05
same,relative viability,[8]; first compound 8 µM,1.11
same,relative viability,[9]; first compound 0.08 µM,1.14
same,relative viability,[9]; first compound 0.253 µM,1.51
same,relative viability,[9]; first compound 0.8 µM,1.47
same,relative viability,[9]; first compound 2.53 µM,1.13
same,relative viability,[9]; first compound 8 µM,1.37
same,relative viability,[10]; first compound 0.08 µM,1.16
same,relative viability,[10]; first compound 0.253 µM,1.26
same,relative viability,[10]; first compound 0.8 µM,1.48
same,relative viability,[10]; first compound 2.53 µM,1.2
same,relative viability,[10]; first compound 8 µM,1.31
same,relative viability,[11]; first compound 0.08 µM,0.962
same,relative viability,[11]; first compound 0.253 µM,0.909
same,relative viability,[11]; first compound 0.8 µM,1.07
same,relative viability,[11]; first compound 2.53 µM,0.906
same,relative viability,[11]; first compound 8 µM,0.934
same,relative viability,[12]; first compound 0.08 µM,0.401
same,relative viability,[12]; first compound 0.253 µM,0.376
same,relative viability,[12]; first compound 0.8 µM,0.401
same,relative viability,[12]; first compound 2.53 µM,0.362
same,relative viability,[12]; first compound 8 µM,0.335
same,relative viability,[13]; first compound 0.08 µM,0.845
same,relative viability,[13]; first compound 0.253 µM,1.13
same,relative viability,[13]; first compound 0.8 µM,1.06
same,relative viability,[13]; first compound 2.53 µM,0.818
same,relative viability,[13]; first compound 8 µM,1.02
CCN(CC)CCCCNc1ncc2cc(-c3cc(OC)cc(OC)c3)c(NC(=O)NC(C)(C)C)nc2n1 + CS(=O)(=O)CCNCc1ccc(-c2ccc3ncnc(Nc4ccc(OCc5cccc(F)c5)c(Cl)c4)c3c2)o1 [Lapatinib] (partner 2 µM),relative viability,[1]; first compound 0.01 µM,1.09
same,relative viability,[1]; first compound 0.03162 µM,1.15
same,relative viability,[1]; first compound 0.1 µM,1.31
same,relative viability,[1]; first compound 0.3162 µM,1.24
same,relative viability,[1]; first compound 1 µM,1.02
same,relative viability,[2]; first compound 0.01 µM,1.18
same,relative viability,[2]; first compound 0.03162 µM,1.04
same,relative viability,[2]; first compound 0.1 µM,1.1
same,relative viability,[2]; first compound 0.3162 µM,1.11
same,relative viability,[2]; first compound 1 µM,0.94
same,relative viability,[3]; first compound 0.01 µM,0.714
same,relative viability,[3]; first compound 0.03162 µM,0.733
same,relative viability,[3]; first compound 0.1 µM,0.614
same,relative viability,[3]; first compound 0.3162 µM,0.35
same,relative viability,[3]; first compound 1 µM,0.242
same,relative viability,[4]; first compound 0.01 µM,1
same,relative viability,[4]; first compound 0.03162 µM,0.977
same,relative viability,[4]; first compound 0.1 µM,0.995
same,relative viability,[4]; first compound 0.3162 µM,1.05
same,relative viability,[4]; first compound 1 µM,0.912
same,relative viability,[5]; first compound 0.01 µM,0.98
same,relative viability,[5]; first compound 0.03162 µM,0.814
same,relative viability,[5]; first compound 0.1 µM,0.966
same,relative viability,[5]; first compound 0.3162 µM,0.645
same,relative viability,[5]; first compound 1 µM,0.303
same,relative viability,[6]; first compound 0.01 µM,0.912
same,relative viability,[6]; first compound 0.03162 µM,0.819
same,relative viability,[6]; first compound 0.1 µM,1.3
same,relative viability,[6]; first compound 0.3162 µM,1.35
same,relative viability,[6]; first compound 1 µM,0.774
same,relative viability,[7]; first compound 0.01 µM,0.805
same,relative viability,[7]; first compound 0.03162 µM,0.644
same,relative viability,[7]; first compound 0.1 µM,0.917
same,relative viability,[7]; first compound 0.3162 µM,0.793
same,relative viability,[7]; first compound 1 µM,1.05
same,relative viability,[8]; first compound 0.01 µM,0.898
same,relative viability,[8]; first compound 0.03162 µM,0.971
same,relative viability,[8]; first compound 0.1 µM,0.956
same,relative viability,[8]; first compound 0.3162 µM,0.932
same,relative viability,[8]; first compound 1 µM,1.43
same,relative viability,[9]; first compound 0.01 µM,1.11
same,relative viability,[9]; first compound 0.03162 µM,0.957
same,relative viability,[9]; first compound 0.1 µM,1.45
same,relative viability,[9]; first compound 0.3162 µM,0.972
same,relative viability,[9]; first compound 1 µM,0.875
same,relative viability,[10]; first compound 0.03162 µM,0.56
same,relative viability,[10]; first compound 0.1 µM,0.703
same,relative viability,[10]; first compound 0.3162 µM,0.674
same,relative viability,[10]; first compound 1 µM,0.62
same,relative viability,[11]; first compound 0.01 µM,1.15
same,relative viability,[11]; first compound 0.03162 µM,0.971
same,relative viability,[11]; first compound 0.1 µM,1.08
same,relative viability,[11]; first compound 0.3162 µM,1.1
same,relative viability,[11]; first compound 1 µM,0.899
same,relative viability,[12]; first compound 0.01 µM,0.228
same,relative viability,[12]; first compound 0.03162 µM,0.231
same,relative viability,[12]; first compound 0.1 µM,0.209
same,relative viability,[12]; first compound 0.3162 µM,0.217
same,relative viability,[12]; first compound 1 µM,0.208
same,relative viability,[13]; first compound 0.01 µM,1.06
same,relative viability,[13]; first compound 0.03162 µM,1.2
same,relative viability,[13]; first compound 0.1 µM,1.39
same,relative viability,[13]; first compound 0.3162 µM,1.13
same,relative viability,[13]; first compound 1 µM,1.02
